≈ marks a conversion by molar mass, not a printed value.
Columns and labels:
[1] = molecular target: Non-receptor tyrosine-protein kinase TYK2 (Homo sapiens, UniProt P29597)
Description: Inhibition of TYK2 (unknown origin) incubated for 45 to 120 mins in presence of ATP by Kinase-Glo luminescent assay

[2] = Intrinsic aqueous solubility of the compound in citrate buffer at pH 6 by HPLC-UV/MS analysis
[3] = molecular target: Tyrosine-protein kinase JAK2 (Homo sapiens, UniProt O60674)
Description: Inhibition of JAK2 (unknown origin) incubated for 45 to 120 mins in presence of ATP by Kinase-Glo luminescent assay

[4] = molecular target: T1, Tyrosine-protein kinase JAK3 (Homo sapiens, UniProt P52333)
T1 sequence (P52333 whole entry): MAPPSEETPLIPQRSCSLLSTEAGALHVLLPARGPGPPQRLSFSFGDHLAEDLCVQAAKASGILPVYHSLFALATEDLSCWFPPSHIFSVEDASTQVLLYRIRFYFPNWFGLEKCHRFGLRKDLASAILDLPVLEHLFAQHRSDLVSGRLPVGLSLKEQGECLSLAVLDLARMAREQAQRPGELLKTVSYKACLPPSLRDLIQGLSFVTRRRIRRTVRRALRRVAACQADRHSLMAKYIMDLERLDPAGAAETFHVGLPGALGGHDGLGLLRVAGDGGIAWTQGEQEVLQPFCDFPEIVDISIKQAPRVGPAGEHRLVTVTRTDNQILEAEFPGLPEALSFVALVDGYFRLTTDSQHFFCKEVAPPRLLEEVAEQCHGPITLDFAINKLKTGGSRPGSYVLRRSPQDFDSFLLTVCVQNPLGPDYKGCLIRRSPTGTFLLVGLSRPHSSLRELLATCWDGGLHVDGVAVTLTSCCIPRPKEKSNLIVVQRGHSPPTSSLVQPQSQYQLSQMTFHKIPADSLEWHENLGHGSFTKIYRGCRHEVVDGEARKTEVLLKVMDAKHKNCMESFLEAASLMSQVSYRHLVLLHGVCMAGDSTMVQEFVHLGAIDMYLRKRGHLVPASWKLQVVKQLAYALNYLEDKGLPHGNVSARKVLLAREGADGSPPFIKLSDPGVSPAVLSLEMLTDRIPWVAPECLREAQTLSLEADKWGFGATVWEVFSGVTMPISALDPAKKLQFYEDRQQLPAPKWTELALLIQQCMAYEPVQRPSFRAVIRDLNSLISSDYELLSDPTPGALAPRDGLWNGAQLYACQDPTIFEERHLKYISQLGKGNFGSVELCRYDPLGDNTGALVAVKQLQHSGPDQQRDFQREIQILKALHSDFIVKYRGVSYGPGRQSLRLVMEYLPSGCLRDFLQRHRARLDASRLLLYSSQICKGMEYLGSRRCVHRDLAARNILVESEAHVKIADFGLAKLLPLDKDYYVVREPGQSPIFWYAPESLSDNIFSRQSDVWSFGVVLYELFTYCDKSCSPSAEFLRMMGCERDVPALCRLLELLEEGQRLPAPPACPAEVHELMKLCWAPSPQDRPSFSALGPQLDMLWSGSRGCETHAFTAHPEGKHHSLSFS
Description: Inhibition of JAK3 (unknown origin) incubated for 45 to 120 mins in presence of ATP by Kinase-Glo luminescent assay

[5] = molecular target: Tyrosine-protein kinase JAK1 (Homo sapiens, UniProt P23458); assay: Inhibition of JAK1 (unknown origin) incubated for 45 to 120 mins in presence of ATP by Kinase-Glo luminescent assay
Sequence of Tyrosine-protein kinase JAK1 (P23458 whole entry): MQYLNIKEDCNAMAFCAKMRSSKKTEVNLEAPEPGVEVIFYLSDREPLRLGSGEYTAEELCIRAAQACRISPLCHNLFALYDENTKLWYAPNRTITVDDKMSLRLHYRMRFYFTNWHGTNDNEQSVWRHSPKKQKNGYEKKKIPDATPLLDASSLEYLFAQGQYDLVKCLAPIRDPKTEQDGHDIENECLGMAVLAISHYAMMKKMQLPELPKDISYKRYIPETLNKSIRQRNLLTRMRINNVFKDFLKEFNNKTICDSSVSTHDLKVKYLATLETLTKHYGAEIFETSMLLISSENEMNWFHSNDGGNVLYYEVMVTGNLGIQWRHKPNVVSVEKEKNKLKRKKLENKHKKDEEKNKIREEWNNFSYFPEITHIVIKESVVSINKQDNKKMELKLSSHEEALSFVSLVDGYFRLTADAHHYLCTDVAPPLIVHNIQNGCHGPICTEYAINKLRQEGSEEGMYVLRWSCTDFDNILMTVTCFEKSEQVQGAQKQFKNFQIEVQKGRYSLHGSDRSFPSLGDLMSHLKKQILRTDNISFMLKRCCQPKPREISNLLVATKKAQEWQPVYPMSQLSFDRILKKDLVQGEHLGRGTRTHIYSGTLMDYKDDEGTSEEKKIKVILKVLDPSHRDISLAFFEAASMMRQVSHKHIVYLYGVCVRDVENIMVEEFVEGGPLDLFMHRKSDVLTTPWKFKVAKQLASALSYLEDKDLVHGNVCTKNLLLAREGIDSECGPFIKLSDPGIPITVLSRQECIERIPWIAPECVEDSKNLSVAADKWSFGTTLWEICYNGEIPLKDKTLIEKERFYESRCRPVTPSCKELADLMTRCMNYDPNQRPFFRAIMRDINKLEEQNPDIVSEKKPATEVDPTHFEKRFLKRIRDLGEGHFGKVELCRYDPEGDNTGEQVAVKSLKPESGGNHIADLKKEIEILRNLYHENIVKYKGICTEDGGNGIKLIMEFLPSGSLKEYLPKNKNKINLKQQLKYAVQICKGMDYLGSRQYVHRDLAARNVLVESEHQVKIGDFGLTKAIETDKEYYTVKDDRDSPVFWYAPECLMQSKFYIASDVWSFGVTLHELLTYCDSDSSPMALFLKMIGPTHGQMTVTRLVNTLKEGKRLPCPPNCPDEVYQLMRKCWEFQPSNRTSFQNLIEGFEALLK

Aurora kinase B = Aurora kinase B (Homo sapiens, UniProt Q96GD4)
Sequence of Aurora kinase B (Q96GD4 whole entry): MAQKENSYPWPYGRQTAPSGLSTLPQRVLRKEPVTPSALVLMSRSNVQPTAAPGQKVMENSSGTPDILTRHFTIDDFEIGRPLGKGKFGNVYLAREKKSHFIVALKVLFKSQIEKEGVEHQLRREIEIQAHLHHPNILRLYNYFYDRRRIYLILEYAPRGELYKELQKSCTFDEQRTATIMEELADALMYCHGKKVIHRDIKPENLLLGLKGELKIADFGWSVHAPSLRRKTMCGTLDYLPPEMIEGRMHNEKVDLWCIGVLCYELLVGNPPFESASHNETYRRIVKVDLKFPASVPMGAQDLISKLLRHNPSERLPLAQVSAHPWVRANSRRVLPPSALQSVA
Description: Inhibition of AURKB (unknown origin) incubated for 45 to 120 mins in presence of ATP by Kinase-Glo luminescent assay

[6] = molecular target: Tyrosine-protein kinase ABL1 (Homo sapiens, UniProt P00519)
Sequence of Tyrosine-protein kinase ABL1 (P00519 whole entry): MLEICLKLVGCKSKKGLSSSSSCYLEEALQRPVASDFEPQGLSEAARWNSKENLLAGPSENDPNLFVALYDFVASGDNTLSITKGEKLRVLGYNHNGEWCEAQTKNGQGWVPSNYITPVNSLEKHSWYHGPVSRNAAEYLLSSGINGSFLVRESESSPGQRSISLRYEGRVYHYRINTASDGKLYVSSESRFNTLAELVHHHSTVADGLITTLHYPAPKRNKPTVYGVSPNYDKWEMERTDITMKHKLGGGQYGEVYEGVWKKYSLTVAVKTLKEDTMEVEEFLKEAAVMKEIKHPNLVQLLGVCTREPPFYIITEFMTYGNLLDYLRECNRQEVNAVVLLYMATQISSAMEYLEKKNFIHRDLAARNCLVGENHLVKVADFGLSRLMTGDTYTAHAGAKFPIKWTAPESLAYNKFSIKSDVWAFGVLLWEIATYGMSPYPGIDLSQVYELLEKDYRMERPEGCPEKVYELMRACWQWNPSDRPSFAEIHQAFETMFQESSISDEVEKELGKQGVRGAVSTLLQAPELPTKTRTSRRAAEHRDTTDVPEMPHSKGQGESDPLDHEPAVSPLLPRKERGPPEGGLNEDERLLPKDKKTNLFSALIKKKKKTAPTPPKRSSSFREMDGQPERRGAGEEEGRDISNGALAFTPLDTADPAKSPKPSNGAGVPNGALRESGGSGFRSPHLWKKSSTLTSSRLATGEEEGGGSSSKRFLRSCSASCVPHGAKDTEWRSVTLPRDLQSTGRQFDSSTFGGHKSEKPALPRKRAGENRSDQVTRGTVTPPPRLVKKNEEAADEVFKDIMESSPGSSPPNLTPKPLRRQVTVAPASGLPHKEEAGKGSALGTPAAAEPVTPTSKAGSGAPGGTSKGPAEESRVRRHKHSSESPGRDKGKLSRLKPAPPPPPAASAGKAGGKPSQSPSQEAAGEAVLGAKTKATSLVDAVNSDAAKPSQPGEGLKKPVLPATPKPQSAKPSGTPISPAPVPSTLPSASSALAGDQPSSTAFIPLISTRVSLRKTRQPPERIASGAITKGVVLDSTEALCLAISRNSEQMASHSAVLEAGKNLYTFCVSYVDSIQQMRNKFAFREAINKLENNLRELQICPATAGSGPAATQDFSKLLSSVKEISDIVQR
Description: Inhibition of ABL1 (unknown origin) incubated for 45 to 120 mins in presence of ATP by Kinase-Glo luminescent assay

[7] = molecular target: Vascular endothelial growth factor receptor 2 (Homo sapiens, UniProt P35968)
Description: Inhibition of KDR (unknown origin) incubated for 45 to 120 mins in presence of ATP by Kinase-Glo luminescent assay

[8] = molecular target: Glycogen synthase kinase-3 beta (Homo sapiens, UniProt P49841)
Sequence of Glycogen synthase kinase-3 beta (P49841 whole entry): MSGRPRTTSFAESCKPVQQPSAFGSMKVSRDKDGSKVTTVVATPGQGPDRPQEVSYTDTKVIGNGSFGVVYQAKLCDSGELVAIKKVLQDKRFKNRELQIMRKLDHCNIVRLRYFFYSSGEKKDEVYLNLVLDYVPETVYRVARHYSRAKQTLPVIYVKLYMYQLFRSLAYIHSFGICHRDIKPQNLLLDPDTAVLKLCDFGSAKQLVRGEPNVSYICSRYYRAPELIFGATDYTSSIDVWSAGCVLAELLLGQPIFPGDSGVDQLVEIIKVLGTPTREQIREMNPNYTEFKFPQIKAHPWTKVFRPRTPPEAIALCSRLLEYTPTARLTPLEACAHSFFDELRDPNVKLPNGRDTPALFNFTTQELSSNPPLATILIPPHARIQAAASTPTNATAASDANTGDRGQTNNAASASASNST
Description: Inhibition of GSK3B (unknown origin) incubated for 45 to 120 mins in presence of ATP by Kinase-Glo luminescent assay

[9] = Dissociation constant, pKa of the compound by potentiometric titration method

Sequence of Tyrosine-protein kinase JAK2 (O60674 whole entry): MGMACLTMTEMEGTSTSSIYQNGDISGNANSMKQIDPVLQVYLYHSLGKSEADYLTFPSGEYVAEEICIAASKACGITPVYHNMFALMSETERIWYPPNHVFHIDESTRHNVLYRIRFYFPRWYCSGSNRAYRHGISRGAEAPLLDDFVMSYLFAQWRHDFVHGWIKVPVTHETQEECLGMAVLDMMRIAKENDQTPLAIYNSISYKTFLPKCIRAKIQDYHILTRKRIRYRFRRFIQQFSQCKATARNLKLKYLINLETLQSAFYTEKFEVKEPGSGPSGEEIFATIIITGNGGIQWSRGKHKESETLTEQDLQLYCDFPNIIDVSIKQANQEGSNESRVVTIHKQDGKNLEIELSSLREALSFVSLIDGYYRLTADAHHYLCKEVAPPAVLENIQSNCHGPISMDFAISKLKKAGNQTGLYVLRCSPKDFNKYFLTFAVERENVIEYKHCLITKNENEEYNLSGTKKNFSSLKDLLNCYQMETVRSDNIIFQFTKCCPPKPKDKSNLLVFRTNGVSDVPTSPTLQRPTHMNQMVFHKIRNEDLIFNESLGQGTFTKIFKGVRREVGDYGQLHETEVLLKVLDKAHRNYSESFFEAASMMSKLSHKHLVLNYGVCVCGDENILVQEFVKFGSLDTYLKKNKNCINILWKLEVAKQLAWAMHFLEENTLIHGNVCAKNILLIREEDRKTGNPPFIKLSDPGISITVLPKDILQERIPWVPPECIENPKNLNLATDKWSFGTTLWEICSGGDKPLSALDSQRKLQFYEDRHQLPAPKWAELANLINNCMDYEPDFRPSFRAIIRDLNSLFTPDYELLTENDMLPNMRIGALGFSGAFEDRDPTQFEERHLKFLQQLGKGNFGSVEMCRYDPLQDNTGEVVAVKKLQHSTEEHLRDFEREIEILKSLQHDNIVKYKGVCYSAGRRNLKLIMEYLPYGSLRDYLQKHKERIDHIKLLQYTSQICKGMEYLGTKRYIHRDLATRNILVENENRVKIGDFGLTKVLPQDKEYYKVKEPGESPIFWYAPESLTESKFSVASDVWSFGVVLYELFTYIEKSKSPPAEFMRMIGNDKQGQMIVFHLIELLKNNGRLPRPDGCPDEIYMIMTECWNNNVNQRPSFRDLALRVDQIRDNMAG

Structure (SMILES): Cc1cnc(Nc2ccc(N3CCN(C)CC3)cc2)nc1-c1cnn(CCC#N)c1
- IC50 [1]: 2 nM
- solubility [2]: 33500 µM (≈ 13500 µg/mL)
- IC50 [3]: 2 nM
- IC50 [4]: 16 nM
- IC50 [5]: 13 nM

Structure (SMILES): Cc1cc(Nc2ncc(C)c(N3CC(CC#N)(N4CCCC4)C3)n2)sn1
- IC50 (Aurora kinase B): 22 nM

Structure (SMILES): Cc1cc(Nc2ncc(C)c(N3CC(CC#N)(N4CCCCC4)C3)n2)sn1
- IC50 [6]: 8430 nM
- IC50 [3]: 4.4 nM

Structure (SMILES): Cc1cc(Nc2ncc(C)c(N3CCN(CC#N)CC3)n2)sn1
- IC50 [7]: 41 nM
- IC50 (Aurora kinase B): 1.5 nM
- solubility [2]: 7 µM (≈ 2.31 µg/mL)
- IC50 [6]: 467 nM
- IC50 [3]: 3.4 nM
- IC50 [8]: 1620 nM

Structure (SMILES): Cc1cc(Nc2ncc(Cl)c(-c3cnn(CCC#N)c3)n2)sn1
- IC50 [1]: 1.5 nM
- IC50 [5]: 3 nM

Structure (SMILES): Cc1cc(Nc2ncc(C)c(N3CCN(CC#N)C(C)C3)n2)sn1 (stereo not given)
- IC50 [7]: 55 nM
- IC50 (Aurora kinase B): 3 nM
- solubility [2]: 19 µM (≈ 6.53 µg/mL)
- IC50 [6]: 1240 nM
- IC50 [3]: 3 nM
- IC50 [8]: 1360 nM

Structure (SMILES): Cc1cc(Nc2ncc(C)c(N3CC(CC#N)C3)n2)sn1
- IC50 (Aurora kinase B): 6 nM
- IC50 [3]: 9 nM

Structure (SMILES): Cn1cc(Nc2nccc(-c3cnn(CCC#N)c3)n2)cn1
- IC50 [1]: 49 nM
- IC50 [3]: 27 nM
- IC50 [5]: 538 nM

Structure (SMILES): Cc1cc(Nc2ncc(C)c(N3CC4CCC(C3)N4CC#N)n2)sn1
- IC50 [7]: 221 nM
- IC50 (Aurora kinase B): 4 nM
- solubility [2]: 11 µM (≈ 3.91 µg/mL)
- IC50 [6]: 1310 nM
- IC50 [3]: 3.9 nM
- IC50 [8]: 1680 nM

Structure (SMILES): Cc1cnc(Nc2cnn(C)c2)nc1N1CC2CCCC(C1)N2CC#N
- IC50 [7]: 7390 nM
- IC50 (Aurora kinase B): 913 nM
- solubility [2]: 7090 µM (≈ 2500 µg/mL)
- IC50 [6]: 16800 nM
- IC50 [3]: 61 nM
- IC50 [8]: 36400 nM

Structure (SMILES): Cc1cc(Nc2ncc(C)c(N3CC(O)(C4CC4)C3)n2)sn1
- IC50 (Aurora kinase B): 0.97 nM
- IC50 [6]: 80 nM
- IC50 [3]: 2.5 nM

Structure (SMILES): Cc1cnc(Nc2cnn(C)c2)nc1N1CC2CCCC(C1)N2CCC#N
- IC50 [7]: 936 nM
- IC50 [1]: 3.4 nM
- IC50 (Aurora kinase B): 19 nM
- IC50 [3]: 3.4 nM
- IC50 [4]: 11 nM
- IC50 [8]: 9900 nM
- IC50 [5]: 2 nM

Structure (SMILES): Cc1cc(Nc2ncc(C)c(N3CC4CCCC(C3)N4CCC#N)n2)sn1
- IC50 [7]: 109 nM
- IC50 (Aurora kinase B): 2.5 nM
- solubility [2]: 11 µM (≈ 4.22 µg/mL)
- IC50 [6]: 537 nM
- IC50 [3]: 0.98 nM
- IC50 [8]: 565 nM

Structure (SMILES): Cc1cc(Nc2ncc(C)c(N3CC(CC#N)(N4CCN(C)CC4)C3)n2)sn1
- IC50 [1]: 2.9 nM
- IC50 (Aurora kinase B): 441 nM
- IC50 [6]: 21400 nM
- IC50 [4]: 70 nM

Structure (SMILES): Cc1cc(Nc2ncc(C)c(-c3cnn(CCC#N)c3)n2)sn1
- IC50 [1]: 1.5 nM
- IC50 (Aurora kinase B): 2.5 nM
- IC50 [6]: 207 nM
- IC50 [3]: 2 nM
- IC50 [4]: 14 nM
- IC50 [5]: 3 nM

Structure (SMILES): Cc1cc(Nc2ncc(C)c(N3CCC(CC#N)CC3)n2)sn1
- IC50 (Aurora kinase B): 1.1 nM

Structure (SMILES): Cc1cc(Nc2ncc(C)c(N3CCN(CC#N)[C@@H](C)C3)n2)sn1
- IC50 [7]: 30 nM
- IC50 (Aurora kinase B): 22 nM
- solubility [2]: 16 µM (≈ 5.5 µg/mL)
- IC50 [6]: 228 nM
- IC50 [3]: 1.5 nM
- IC50 [8]: 2200 nM

Structure (SMILES): Cc1cc(Nc2ncc(C)c(N3CC4CCCC(C3)N4CC#N)n2)sn1
- IC50 [7]: 1580 nM
- IC50 (Aurora kinase B): 364 nM
- solubility [2]: 35 µM (≈ 12.9 µg/mL)
- IC50 [6]: 2030 nM
- IC50 [3]: 5.4 nM
- IC50 [8]: 3240 nM

Structure (SMILES): Cc1cnc(Nc2ccccc2)nc1-c1cnn(CCC#N)c1
- IC50 [1]: 11 nM
- solubility [2]: 52 µM (≈ 15.8 µg/mL)
- IC50 [3]: 6 nM
- IC50 [4]: 143 nM
- IC50 [5]: 50 nM

Structure (SMILES): Cc1cc(Nc2ncc(C)c(N3CC(CCC#N)C3)n2)sn1
- IC50 (Aurora kinase B): 3 nM
- IC50 [6]: 568 nM
- IC50 [3]: 13 nM

Structure (SMILES): Cc1cnc(Nc2cnn(C)c2)nc1-c1cnn([C@H](CC#N)C2CCCC2)c1
- IC50 [1]: 0.98 nM
- IC50 (Aurora kinase B): 7 nM
- IC50 [6]: 351 nM
- IC50 [3]: 0.98 nM
- IC50 [4]: 3.4 nM
- IC50 [8]: 395 nM
- IC50 [5]: 0.99 nM

Structure (SMILES): Cc1cc(Nc2ncc(C)c(N3CC4CCC(C3)N4CCC#N)n2)sn1
- IC50 [7]: 96 nM
- IC50 (Aurora kinase B): 1.5 nM
- IC50 [3]: 0.98 nM
- IC50 [8]: 311 nM

Structure (SMILES): Cc1cc(Nc2ncc(C)c(N3CC(CC#N)(OC4CC5(CC5)C4)C3)n2)sn1
- IC50 (Aurora kinase B): 187 nM
- IC50 [6]: 10300 nM
- IC50 [3]: 8 nM

Structure (SMILES): Cc1cnc(NC2CCOCC2)nc1-c1cnn(CCC#N)c1
- IC50 [1]: 50000 nM
- solubility [2]: 390 µM (≈ 122 µg/mL)
- IC50 [3]: 41900 nM
- IC50 [4]: 50000 nM
- IC50 [5]: 50000 nM

Structure (SMILES): Cc1cnc(NCCN2CCOCC2)nc1-c1cnn(CCC#N)c1
- IC50 [3]: 19500 nM
- IC50 [4]: 50000 nM
- IC50 [5]: 50000 nM

Structure (SMILES): Cc1cc(Nc2cc(-c3cnn(CCC#N)c3)c(Cl)cn2)sn1
- IC50 [1]: 50000 nM
- IC50 [5]: 50000 nM

Structure (SMILES): Cc1cc(Nc2ncc(C)c(N3CC(C4CC4)C3)n2)sn1
- IC50 (Aurora kinase B): 21 nM
- IC50 [3]: 3.4 nM

Structure (SMILES): Cc1cnc(Nc2ccc(N3CCOCC3)cc2)nc1-c1cnn(CCC#N)c1
- IC50 [1]: 2 nM
- solubility [2]: 13 µM (≈ 5.06 µg/mL)
- IC50 [3]: 2 nM
- IC50 [4]: 18 nM
- pKa [9]: 4.2
- IC50 [5]: 15 nM

Structure (SMILES): Cc1cnc(Nc2cnn(C)c2)nc1-c1cnn(CCC#N)c1
- IC50 [1]: 3.4 nM
- solubility [2]: 69 µM (≈ 21.3 µg/mL)
- IC50 [4]: 55 nM
- IC50 [5]: 12 nM

Structure (SMILES): Cc1cnc(Nc2cnn(C)c2)nc1N1CC(CC#N)(N2CCN(C)CC2)C1
- IC50 (Aurora kinase B): 764 nM
- IC50 [6]: 50000 nM
- IC50 [3]: 34 nM
